Assay: Phase 1 dose-escalation: tolerability and safety (DLTs, adverse events, CTCAE v4.0)
Assay type: in vivo
Description: This was a non-randomized, single-arm, open-label, Phase 1, dose-escalation study of oral LY3023414 in Japanese patients with advanced malignancies. A modified 3 + 3 dose-escalation method was used to evaluate the dose-limiting toxicity (DLT) of LY3023414. Enrollment of 3 patients and 6 patients were planned for dose level 1 (150 mg) and dose level 2 (200 mg), respectively. Dose-escalation decisions were made by agreement between investigators and the sponsor, with a consultation with the Safety Assessment Committee (SAC), as needed. If 2 patients experienced DLTs at any given dose, the sponsor examined safety data and consulted the SAC. Following consultation, the sponsor and investigators decided whether the dose was intolerable or additional patients were to be enrolled to the same or an intermediate dose level for further investigation. If ≥3 patients experienced DLTs at any given dose, the dose was considered intolerable for Japanese patients. No intrapatient dose escalation was allowed.
The study evaluated 2 dose levels, 150 mg or 200 mg LY3023414 monotherapy administered in the morning and evening, approximately 12 h apart. The cycle was of 21 days. […] No dose reductions were allowed during Cycle 1, unless a DLT was reported. Dose reductions were allowed in Cycle 2 and beyond at the discretion of the investigator. Patients were treated until a discontinuation criterion was met.
Tolerability and safety were assessed through clinical and laboratory evaluations at weekly intervals for the first 2 cycles and at least every 2 weeks thereafter. Adverse events (AEs) were graded according to the Common Terminology Criteria for Adverse Events Version 4.0 and coded to Medical Dictionary for Regulatory Activities preferred terms. All patients who received ≥1 dose of the study drug were included in the safety analysis.
A DLT was defined as any AE during Cycle 1 which was possibly related to study treatment with LY3023414 and fulfilled any of the following main criteria: Grade ≥ 3 non-hematological toxicity (except nausea, vomiting, diarrhea, constipation, anorexia, skin rash, or asymptomatic electrolyte abnormality for ≤3 days and responsive to appropriate treatment; transient ≤5 days hyperglycemia; and transient ≤7 days mucositis), Grade 4 hematological toxicity of ≥7 days, Grade 3 thrombocytopenia with Grade ≥ 2 bleeding or febrile neutropenia, requirement of platelet or packed red blood transfusion, and any toxicities requiring dose omissions of >20% of intended doses in Cycle 1. The maximum tolerated dose was defined as the highest dose of LY3023414 not causing a DLT in more than 33% of patients.

With `CO[C@@H](C)Cn1c(=O)n(C)c2cnc3ccc(-c4cncc(C(C)(C)O)c4)cc3c21` [LY3023414] the Maximum tolerated dose (BID dosing, Japanese patients) was 200 mg, the Fatal events (due to AEs or any other reason) was “no fatal events” and the “ALT increased, AE possibly related to study drug” value (human, in vivo) was 3 (25.0) n (%). The “AST increased, AE possibly related to study drug” value (human, in vivo) was 3 (25.0) n (%), the “Anemia, AE possibly related to study drug” value (human, in vivo) was 5 (41.7) n (%) and the “Appetite decreased, AE possibly related to study drug” value (human, in vivo) was 7 (58.3) n (%). For the same molecule, the “Blood creatinine increased, AE possibly related to study drug” value (human, in vivo) was 4 (33.3) n (%), the “Diarrhea, AE possibly related to study drug” value (human, in vivo) was 5 (41.7) n (%) and the “Drug-related Grade 4 or 5 AEs” value (human, in vivo) was “No drug-related Grade 4 or 5 AEs”. For the same molecule, the “Fatigue, AE possibly related to study drug” value (human, in vivo) was 4 (33.3) n (%), the “Hyperglycemia, AE possibly related to study drug” value (human, in vivo) was 4 (33.3) n (%) and the “Hypokalemia, AE possibly related to study drug” value (human, in vivo) was 2 (16.7) n (%). For the same molecule, the “Hypophosphatemia, AE possibly related to study drug” value (human, in vivo) was 4 (33.3) n (%), the “Hypotension, AE possibly related to study drug” value (human, in vivo) was 2 (16.7) n (%) and the “Nausea, AE possibly related to study drug” value (human, in vivo) was 8 (66.7) n (%). For the same molecule, the “Patients with at least 1 dose adjustment” value (human, in vivo) was 33.3%, the “Patients with serious AEs” value (human, in vivo) was 3 patients and the “Platelet count decreased, hematological AE possibly related to study drug” value (human, in vivo) was 5 (41.7) n (%). For the same molecule, the “Proteinuria, AE possibly related to study drug” value (human, in vivo) was 4 (33.3) n (%), the “Pruritis, AE possibly related to study drug” value (human, in vivo) was 3 (25.0) n (%) and the “Pyrexia, AE possibly related to study drug” value (human, in vivo) was 2 (16.7) n (%). The “Rash, AE possibly related to study drug” value (human, in vivo) was 3 (25.0) n (%), the “Stomatitis, AE possibly related to study drug” value (human, in vivo) was 9 (75.0) n (%) and the “Vomiting, AE possibly related to study drug” value (human, in vivo) was 4 (33.3) n (%). For the same molecule, the “WBC count decreased, hematological AE possibly related to study drug” value (human, in vivo) was 2 (16.7) n (%), the “Weight decreased, AE possibly related to study drug” value (human, in vivo) was 2 (16.7) n (%) and the “anemia, related AE Grade ≥ 3, patients” value (human, in vivo) was 16.7%. The “anemia, treatment-related AE, patients” value (human, in vivo) was 41.7%, the “decreased appetite, treatment-related AE, patients” value (human, in vivo) was 58.3% and the “decreased platelet count, treatment-related AE, patients” value (human, in vivo) was 41.7%. The “decreased weight, treatment-related AE, patients” value (human, in vivo) was 16.7%, the “decreased white blood cell count, treatment-related AE, patients” value (human, in vivo) was 16.7% and the “diarrhea, treatment-related AE, patients” value (human, in vivo) was 41.7%. For the same molecule, the “fatigue, treatment-related AE, patients” value (human, in vivo) was 33.3%, the “hyperglycemia, related AE Grade ≥ 3, patients” value (human, in vivo) was 16.7% and the “hyperglycemia, treatment-related AE, patients” value (human, in vivo) was 33.3%. The “hypokalemia, treatment-related AE, patients” value (human, in vivo) was 16.7%, the “hypophosphatemia, related AE Grade ≥ 3, patients” value (human, in vivo) was 16.7% and the “hypophosphatemia, treatment-related AE, patients” value (human, in vivo) was 33.3%. For the same molecule, the “hypotension, treatment-related AE, patients” value (human, in vivo) was 16.7%, the “increased alanine aminotransferase, treatment-related AE, patients” value (human, in vivo) was 25.0% and the “increased aspartate aminotransferase, treatment-related AE, patients” value (human, in vivo) was 25.0%. For the same molecule, the “increased blood creatinine, treatment-related AE, patients” value (human, in vivo) was 33.3%, the “nausea, treatment-related AE, patients” value (human, in vivo) was 66.7% and the “proteinuria, treatment-related AE, patients” value (human, in vivo) was 33.3%. The “pruritus, treatment-related AE, patients” value (human, in vivo) was 25.0%, the “pyrexia, treatment-related AE, patients” value (human, in vivo) was 16.7% and the “rash, treatment-related AE, patients” value (human, in vivo) was 25.0%. The “stomatitis, related AE Grade ≥ 3, patients” value (human, in vivo) was 16.7%, the “stomatitis, treatment-related AE, patients” value (human, in vivo) was 75.0% and the “vomiting, treatment-related AE, patients” value (human, in vivo) was 33.3%. The “Dose-limiting toxicities (DLTs)” value (in vivo) was “No DLTs” and the “Patients with at least 1 AE considered possibly related to the study drug” value (in vivo) was “All patients”.
